In patent publication US8853230B2, “Inhibitors of JAK” (Portola Pharmaceuticals, Inc., priority 2009, dated 2014):

Tests used:
[1] = system: IL4-induced phospho STAT6 formation in Ramos B lymphocytes; test: Inhibition of IL4-induced phospho STAT6 formation in Ramos B lymphocytes (flow cytometry); assay type: cell-based, human; settings: Homo sapiens; for inhibition at 0.2 µM: 200 nM compound, read-out: % Inhibition of IL-4 Induced STAT6 Phosphorylation 200 nM; for inhibition at 1 µM: 1 μM compound, read-out: % Inhibition of IL-4 Induced STAT6 Phosphorylation 1 μM
Summary of the method: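 Human Ramos B cells (0.5 million) pre-incubated 1 h at 37°C/5% CO2 with compound or DMSO, then stimulated with 1 ng/ml IL4 for 10 min. Cells were PFA-fixed, methanol-permeabilized and stained with Alexa-anti-phosphoSTAT6 (Y641); flow cytometry mean fluorescence gave percent inhibition of the IL4 signal.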

JAK1 = target: T1, JAK1 (Homo sapiens, UniProt P23458); test: Z'-LYTE kinase assay, JAK1 tyrosine phosphorylation activity; assay type: biochemical; settings: read-out: JAK 1 IC50
T1 construct: 5 μl of catalytic domain recombinant Kinase enzyme+Tyr peptide substrate (Invitrogen, Calif.); purchased Invitrogen
T1 sequence (P23458 875-1153 limits assumed): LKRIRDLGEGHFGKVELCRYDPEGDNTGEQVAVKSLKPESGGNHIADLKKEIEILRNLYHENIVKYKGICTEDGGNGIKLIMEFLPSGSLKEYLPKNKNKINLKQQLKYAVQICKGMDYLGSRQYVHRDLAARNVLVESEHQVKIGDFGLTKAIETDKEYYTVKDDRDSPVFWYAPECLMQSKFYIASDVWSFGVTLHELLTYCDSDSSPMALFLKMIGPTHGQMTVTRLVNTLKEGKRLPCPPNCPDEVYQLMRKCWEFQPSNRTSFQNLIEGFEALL
Summary of the method: (§1)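 FRET-based Z′-LYTE format with recombinant catalytic-domain kinases and Tyr6 peptide substrate; compounds in 1% DMSO final, duplicate wells. Kinase reaction with ATP runs 1 h at room temperature, then protease development 1 h; fluorescence read at ex 400, em 445/520 nm. IC50 from 4-parameter logistic fit of percent phosphorylation versus uninhibited.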

TYK2 = target: T2, TYK2 (Homo sapiens, UniProt P29597); test: Z'-LYTE kinase assay, TYK2 tyrosine phosphorylation activity; assay type: biochemical
T2 construct: 5 μl of catalytic domain recombinant Kinase enzyme+Tyr peptide substrate (Invitrogen, Calif.); purchased Invitrogen
T2 sequence (P29597 897-1176 limits assumed): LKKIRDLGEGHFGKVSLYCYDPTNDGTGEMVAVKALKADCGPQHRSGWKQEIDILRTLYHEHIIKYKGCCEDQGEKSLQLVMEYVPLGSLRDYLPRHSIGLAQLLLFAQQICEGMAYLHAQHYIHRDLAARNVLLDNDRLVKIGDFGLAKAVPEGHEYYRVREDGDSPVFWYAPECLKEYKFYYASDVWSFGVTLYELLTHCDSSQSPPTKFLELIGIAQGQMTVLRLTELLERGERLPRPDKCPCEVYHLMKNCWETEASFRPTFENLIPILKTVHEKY
Summary of the method: as §1

JAK2 = target: T3, JAK2 (Homo sapiens, UniProt O60674); test: Z'-LYTE kinase assay, JAK2 tyrosine phosphorylation activity; assay type: biochemical
T3 construct: 5 μl of catalytic domain recombinant Kinase enzyme+Tyr peptide substrate (Invitrogen, Calif.); purchased Invitrogen
T3 sequence (O60674 849-1124 limits assumed): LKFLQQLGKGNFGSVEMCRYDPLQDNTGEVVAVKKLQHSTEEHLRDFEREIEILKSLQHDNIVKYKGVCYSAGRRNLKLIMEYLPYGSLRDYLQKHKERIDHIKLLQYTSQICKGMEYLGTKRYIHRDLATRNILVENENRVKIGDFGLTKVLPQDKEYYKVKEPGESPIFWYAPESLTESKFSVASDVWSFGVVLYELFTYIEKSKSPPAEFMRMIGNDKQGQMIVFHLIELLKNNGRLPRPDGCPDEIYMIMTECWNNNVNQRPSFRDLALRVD
Summary of the method: as §1

Syk = Syk (Homo sapiens, UniProt P43405); test: Syk IC50 (Table 1; method not given); assay type: biochemical
JAK3 = target: T4, JAK3 (Homo sapiens, UniProt P52333); test: Z'-LYTE kinase assay, JAK3 tyrosine phosphorylation activity; assay type: biochemical
T4 construct: 5 μl of catalytic domain recombinant Kinase enzyme+Tyr peptide substrate (Invitrogen, Calif.); purchased Invitrogen
T4 sequence (P52333 822-1111 limits assumed): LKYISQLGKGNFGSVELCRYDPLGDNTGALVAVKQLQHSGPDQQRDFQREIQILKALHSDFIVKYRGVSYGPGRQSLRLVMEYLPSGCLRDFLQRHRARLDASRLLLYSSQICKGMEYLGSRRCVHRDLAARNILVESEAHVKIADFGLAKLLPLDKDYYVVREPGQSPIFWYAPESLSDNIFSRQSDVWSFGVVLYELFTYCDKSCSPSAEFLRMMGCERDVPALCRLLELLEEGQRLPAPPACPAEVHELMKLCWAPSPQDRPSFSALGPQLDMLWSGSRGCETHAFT
Summary of the method: as §1

Row | Compound | inhibition at 0.2 µM [1] [%] | inhibition at 1 µM [1] [%] | IC50 (JAK1) [nM] | IC50 (TYK2) [nM] | IC50 (JAK2) [nM] | IC50 (Syk) [nM] | IC50 (JAK3) [nM]
1 | CC(=O)Nc1cccc(Nc2ncc(C(N)=O)c(NCc3ccccc3)n2)c1 [Example 17, 2-(3-acetamidophenylamino)-4-(benzylamino)pyrimidine-5-carboxamide] | 34 | 73.7 | 10 to 100 | 1 to 10 | 1 to 10 | 100 to 1000 | < 1
2 | NC(=O)c1cnc(Nc2cccc(NC(=O)C3CCC3)c2)nc1NC1CCCC1 [Example 20, 2-(3-(cyclobutanecarboxamido)phenylamino)-4-(cyclopentylamino)pyrimidine-5-carboxamide] | 41.3 | 89.6 | 10 to 100 | 1 to 10 | 10 to 100 | 100 to 1000 | 1 to 10
3 | CCOC(=O)Nc1cccc(Nc2ncc(C(N)=O)c(NC3CCCC3)n2)c1 [Example 24, ethyl 3-(5-carbamoyl-4-(cyclopentylamino)pyrimidin-2-ylamino)phenylcarbamate] | 24.7 | 71.3 | 100 to 1000 | 10 to 100 | 100 to 1000 | 100 to 1000 | 10 to 100
4 | NC(=O)c1cnc(Nc2cccc(NC(=O)C3CC3)c2)nc1NCc1ccccc1 [Example 26, 4-(benzylamino)-2-(3-(cyclopropanecarboxamido)phenylamino)pyrimidine-5-carboxamide] | 7.3 | 45.7 | 100 to 1000 | 1 to 10 | 10 to 100 | > 1000 | 1 to 10
5 | NC(=O)c1cnc(Nc2cccc(NC(=O)C3CCC3)c2)nc1NCc1ccccc1 [Example 27, 4-(benzylamino)-2-(3-(cyclobutanecarboxamido)phenylamino)pyrimidine-5-carboxamide] | 7 | 54.3 | 100 to 1000 | 10 to 100 | 10 to 100 | > 1000 | 1 to 10
6 | CCC(=O)Nc1cccc(Nc2ncc(C(N)=O)c(NCc3ccccc3)n2)c1 [Example 28, 4-(benzylamino)-2-(3-propionamidophenylamino)pyrimidine-5-carboxamide] | 32 | 77.7 | 10 to 100 | 1 to 10 | 10 to 100 | > 1000 | 1 to 10
7 | COCC(=O)Nc1cccc(Nc2ncc(C(N)=O)c(NCc3ccccc3)n2)c1 [Example 29, 4-(benzylamino)-2-(3-(2-methoxyacetamido)phenylamino)pyrimidine-5-carboxamide] | 37.5 | 80 | 10 to 100 | 1 to 10 | 10 to 100 | > 1000 | 1 to 10
8 | COC(=O)Nc1cccc(Nc2ncc(C(N)=O)c(NCc3ccccc3)n2)c1 [Example 30, methyl 3-(4-(benzylamino)-5-carbamoylpyrimidin-2-ylamino)phenylcarbamate] | 8.3 | 63 | 100 to 1000 | 1 to 10 | 10 to 100 | 100 to 1000 | 1 to 10
9 | CCOC(=O)Nc1cccc(Nc2ncc(C(N)=O)c(NCc3ccccc3)n2)c1 [Example 31, ethyl 3-(4-(benzylamino)-5-carbamoylpyrimidin-2-ylamino)phenylcarbamate] | 13.7 | 37 | 100 to 1000 | 10 to 100 | 100 to 1000 | > 1000 | 1 to 10
10 | COC(=O)Nc1cc(Nc2ncc(C(N)=O)c(NCc3ccccc3)n2)ccc1Cl [Example 32, methyl 5-(4-(benzylamino)-5-carbamoylpyrimidin-2-ylamino)-2-chlorophenylcarbamate] | 27 | 65 | 100 to 1000 | 10 to 100 | 100 to 1000 | > 1000 | 10 to 100
11 | NC(=O)Nc1cccc(Nc2ncc(C(N)=O)c(NCc3ccccc3)n2)c1 [Example 38, 4-(benzylamino)-2-(3-ureidophenylamino)pyrimidine-5-carboxamide] | 41.3 | 82.7 | 10 to 100 | 1 to 10 | 10 to 100 | 100 to 1000 | 1 to 10
12 | CNC(=O)Nc1cccc(Nc2ncc(C(N)=O)c(NCc3ccccc3)n2)c1 [Example 39, 4-(benzylamino)-2-(3-(3-methylureido)phenylamino)pyrimidine-5-carboxamide] | 15 | 60 | 10 to 100 | 1 to 10 | 10 to 100 | > 1000 | 1 to 10
13 | NC(=O)c1cnc(Nc2cccc(NC(=O)N3CCCC3)c2)nc1NCc1ccccc1 [Example 40, 4-(benzylamino)-2-(3-(pyrrolidine-1-carboxamido)phenylamino)pyrimidine-5-carboxamide] | 47.2 | 78.8 | 10 to 100 | 1 to 10 | 10 to 100 | > 1000 | < 1
14 | CC(C)OC(=O)Nc1cccc(Nc2ncc(C(N)=O)c(NCc3ccccc3)n2)c1 [Example 41, isopropyl 3-(4-(benzylamino)-5-carbamoylpyrimidin-2-ylamino)phenylcarbamate] | 50.7 | 95.3 | > 1000 | 10 to 100 | 100 to 1000 | > 1000 | 10 to 100
15 | COCC(=O)Nc1cccc(Nc2ncc(C(N)=O)c(N[C@H](C)c3ccccc3)n2)c1 [Example 47, (R)-2-(3-(2-methoxyacetamido)phenylamino)-4-(1-phenylethylamino)pyrimidine-5-carboxamide] | 25.3 | 77.7 | 100 to 1000 | 10 to 100 | 10 to 100 | > 1000 | 1 to 10
16 | CC(=O)Nc1cccc(Nc2ncc(C(N)=O)c(NC3CCCCC3)n2)c1 [Example 52, 2-(3-acetamidophenylamino)-4-(cyclohexylamino)pyrimidine-5-carboxamide] | 63 | 94 | 10 to 100 | 1 to 10 | 10 to 100 | 100 to 1000 | 1 to 10
17 | COCC(=O)Nc1cccc(Nc2ncc(C(N)=O)c(NC(C)C)n2)c1 [Example 57, 4-(isopropylamino)-2-(3-(2-methoxyacetamido)phenylamino)pyrimidine-5-carboxamide] | 55 | 76.5 | 10 to 100 | 10 to 100 | 10 to 100 | 100 to 1000 | 1 to 10
18 | CC(=O)Nc1cccc(Nc2ncc(C(N)=O)c(N[C@H](CO)Cc3cnc[nH]3)n2)c1 [Example 60, (S)-2-(3-acetamidophenylamino)-4-(1-hydroxy-3-(1H-imidazol-5-yl)propan-2-ylamino)pyrimidine-5-carboxamide] | 12.5 | 23 | 100 to 1000 | 100 to 1000 | 100 to 1000 | > 1000 | 10 to 100
19 | CC[C@H](C)[C@@H](CO)Nc1nc(Nc2cccc(NC(C)=O)c2)ncc1C(N)=O [Example 73, 2-(3-acetamidophenylamino)-4-((2S,3S)-1-hydroxy-3-methylpentan-2-ylamino)pyrimidine-5-carboxamide] | 17.1 | 55.6 | 10 to 100 | 1 to 10 | 10 to 100 | > 1000 | 1 to 10
20 | CC(=O)Nc1cccc(Nc2ncc(C(N)=O)c(NC3CCOCC3)n2)c1 [Example 75, 2-(3-acetamidophenylamino)-4-(tetrahydro-2H-pyran-4-ylamino)pyrimidine-5-carboxamide] | 53.3 | 90.3 | 10 to 100 | 10 to 100 | 10 to 100 | > 1000 | 1 to 10
21 | CC(=O)Nc1cccc(Nc2ncc(C(N)=O)c(N[C@H](CO)c3ccccc3)n2)c1 [Example 93, (S)-2-(3-acetamidophenylamino)-4-(2-hydroxy-1-phenylethylamino)pyrimidine-5-carboxamide] | 20 | 53 | 100 to 1000 | 10 to 100 | 10 to 100 | > 1000 | 1 to 10
